Consider 15 compounds from patent US12398107B2, “Fungicidal nitroanilino substituted pyrazoles” (FMC Corporation, priority 2018, dated 2025).

Type in all cases: in vivo
The test system of assay [1] is Blumeria graminis f. sp. tritici. Kind of assay: Test C: wheat powdery mildew, preventive spray on wheat seedlings. As to conditions: rated after 8 days, 100 = 100% disease control, 0 = no control; for Test C disease control rating (wheat powdery mildew) / pest or weed control at 50 ppm: 50 ppm. Put shortly: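 Compound dissolved in acetone (3% of final volume), then suspended in 50/50 acetone/water with 250 ppm PEG400 and sprayed to run-off on wheat seedlings. Inoculated next day with B. graminis f. sp. tritici spore dust, kept 8 days at 20° C; visual rating, 100 = full control, 0 = none, relative to controls.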

For assay [2], the system named is Septoria tritici. Kind of assay: Test A: wheat leaf blotch, preventive spray on wheat seedlings. As to conditions: 100 = 100% disease control, 0 = no control relative to controls; for Test A disease control rating (wheat leaf blotch) / pest or weed control at 50 ppm: 50 ppm. The essentials: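 Compounds were suspended in acetone/water (50/50) with 250 ppm PEG400 and sprayed to run-off on wheat seedlings. The next day the seedlings were inoculated with Septoria tritici spores, held 48 h at 24 °C in saturated humidity, then 17 days at 20 °C. Disease control was rated 0–100 relative to controls.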

In assay [3] the test system is Phakopsora pachyrhizi. Kind of assay: Test D: Asian soybean rust, preventive spray on soybean seedlings. As to conditions: 100 = 100% disease control, 0 = no control; for Test D disease control rating (Asian soybean rust) / pest or weed control at 50 ppm: 50 ppm. Put shortly: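 Soybean seedlings sprayed to run-off with compound suspension (ppm, in 50/50 acetone/water with 250 ppm PEG400), inoculated next day with P. pachyrhizi spores, held 24 h saturated at 22°C then 8 days at 22°C. Visual rating 0-100% disease control relative to controls.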

Assay [4] relates to Puccinia recondita f. sp. tritici. Kind of assay: Test B: wheat leaf rust, preventive spray on wheat seedlings. As to conditions: 100 = 100% disease control, 0 = no control relative to controls; for Test B disease control rating (wheat leaf rust) / pest or weed control at 50 ppm: 50 ppm. The essentials: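 Compounds in acetone/water (50/50) with 250 ppm PEG400, sprayed to run-off on wheat seedlings at stated ppm; inoculated next day with P. recondita spores. Held 24 h saturated at 20° C., then 7 days in growth chamber at 20° C.; rating 0–100 = % disease control vs controls.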

For assay [5], the system named is Alternaria solani. Kind of assay: Test F: tomato early blight, preventive spray on tomato seedlings. As to conditions: 100 = 100% disease control, 0 = no control; for Test F disease control rating (tomato early blight) / pest or weed control at 50 ppm: 50 ppm. The essentials:
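Compounds in acetone/water (50/50) with 250 ppm PEG400, dosed in ppm, sprayed to run-off on tomato seedlings; next day inoculated with A. solani spores. Held 48 h saturated at 27° C, then 3 days at 20° C; visual rating 0–100% disease control relative to controls.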

Assay [6] relates to Botrytis cinerea. Kind of assay: Test E: tomato Botrytis, preventive spray on tomato seedlings. As to conditions: 100 = 100% disease control, 0 = no control; for Test E disease control rating (tomato Botrytis) / pest or weed control at 50 ppm: 50 ppm. The essentials:
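Tomato seedlings sprayed to run-off with compound (ppm) in acetone/water with 250 ppm PEG400, then inoculated next day with B. cinerea spores. Held 48 h at 20 °C in saturated atmosphere, then 3 days at 24 °C. Visual rating 0–100% disease control relative to untreated controls.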

Setting [7] is: Blumeria graminis, 192 h, read-out: Test C disease control rating (wheat powdery mildew).
Where [8] appears, read: Zymoseptoria tritici, read-out: Test A disease control rating (wheat leaf blotch).
The mark [9] stands for this setting: Phakopsora pachyrhizi, read-out: Test D disease control rating (Asian soybean rust).
Where [10] appears, read: read-out: Test B disease control rating (wheat leaf rust).
Where [11] appears, read: Alternaria solani, read-out: Test F disease control rating (tomato early blight).
The mark [12] stands for this setting: Botrytis cinerea, read-out: Test E disease control rating (tomato Botrytis).

For `Cc1cc(Cl)c(Nc2c(-c3c(F)cccc3F)c(C)nn2C)c([N+](=O)[O-])c1` [Compound 100], the “Test C disease control rating (wheat powdery mildew)” value (“Test C disease control rating” below) in assay [1] worked out at 21%. Further, the “Test A disease control rating (wheat leaf blotch)” value (shortened to “Test A disease control rating”) in assay [2] is reported as 100%. Besides, in assay [3], the “Test D disease control rating (Asian soybean rust)” value (from here on “Test D disease control rating”) came to 0%. Besides, the “Test B disease control rating (wheat leaf rust)” value (from here on “Test B disease control rating”) in assay [4] is given as 89%. Also, the “Test F disease control rating (tomato early blight)” value (shortened to “Test F disease control rating”) in assay [5] is 0%. In assay [6], the “Test E disease control rating (tomato Botrytis)” value (“Test E disease control rating” below) is 26%.

For the compound `Cc1nn(C)c(Nc2c(Cl)cc(Cl)cc2[N+](=O)[O-])c1-c1ccc(F)cc1F` [Compound 101], in assay [1], the “Test C disease control rating” value was 89%. Also, the “Test A disease control rating” value in assay [2] worked out at 100%. Besides, in assay [3], the “Test D disease control rating” value is 44%. In addition, the “Test B disease control rating” value in assay [4] is listed as 99%. Further, the “Test F disease control rating” value in assay [5] is reported as 0%. The “Test E disease control rating” value in assay [6] was found to be 99%.

For the compound `Cc1nn(C)c(Nc2c(F)cc(Cl)cc2[N+](=O)[O-])c1-c1ccc(F)cc1F` [Compound 102], the “Test C disease control rating” value in assay [1] was found to be 100%. Besides, the “Test A disease control rating” value in assay [2] was found to be 100%. In assay [3], the “Test D disease control rating” value is listed as 48%. Moreover, the “Test B disease control rating” value in assay [4] came to 100%. The “Test F disease control rating” value in assay [5] came out at 99%. Besides, in assay [6], the “Test E disease control rating” value is 99%.

Regarding `CCOc1ccc(Nc2c(-c3ccc(F)cc3Cl)c(C)nn2C)c([N+](=O)[O-])c1` [Compound 103], in assay [1], the “Test C disease control rating” value was 50%. Further, in assay [2], the “Test A disease control rating” value is on record as 97%. Also, the “Test D disease control rating” value in assay [3] was found to be 0%. Moreover, the “Test B disease control rating” value in assay [4] was 80%. The “Test F disease control rating” value in assay [5] worked out at 0%. In addition, the “Test E disease control rating” value in assay [6] came out at 83%.

On to `Cc1nn(C)c(Nc2ccc(OC(C)C)cc2[N+](=O)[O-])c1-c1ccc(F)cc1Cl` [Compound 104], for which the “Test C disease control rating” value in assay [1] is listed as 72%. Also, the “Test A disease control rating” value in assay [2] is on record as 60%. Besides, the “Test D disease control rating” value in assay [3] came out at 0%. Also, the “Test B disease control rating” value in assay [4] was 0%. Further, the “Test F disease control rating” value in assay [5] worked out at 0%. For the same compound, the “Test E disease control rating” value in assay [6] worked out at 0%.

In the case of `Cc1ccc(Nc2c(-c3c(F)cccc3F)c(C)nn2C)c([N+](=O)[O-])c1` [Compound 105], the “Test C disease control rating” value in assay [1] is 86%. The “Test A disease control rating” value in assay [2] is reported as 99%. Further, the “Test D disease control rating” value in assay [3] turned out to be 0%. For the same compound, the “Test B disease control rating” value in assay [4] is on record as 74%. Also, in assay [5], the “Test F disease control rating” value is given as 0%. Further, the “Test E disease control rating” value in assay [6] is 73%.

Take `Cc1nn(C)c(Nc2c(Cl)cccc2[N+](=O)[O-])c1-c1ccc(F)cc1Cl` [Compound 108]: the “Test C disease control rating” value in assay [1] stood at 97%. Moreover, the “Test A disease control rating” value in assay [2] is 100%. Also, in assay [3], the “Test D disease control rating” value is 86%. In assay [4], the “Test B disease control rating” value came to 100%. Further, the “Test F disease control rating” value in assay [5] was found to be 77%. Besides, the “Test E disease control rating” value in assay [6] is given as 100%.

Take `Cc1nn(C)c(Nc2c(F)cc(F)cc2[N+](=O)[O-])c1-c1ccc(F)cc1Cl` [Compound 109]: the “Test C disease control rating” value in assay [1] stood at 100%. The “Test A disease control rating” value in assay [2] is recorded as 100%. Further, the “Test D disease control rating” value in assay [3] is 93%. In addition, the “Test B disease control rating” value in assay [4] is listed as 100%. For the same compound, the “Test F disease control rating” value in assay [5] is on record as 99%. Moreover, in assay [6], the “Test E disease control rating” value is given as 100%.

As to `Cc1nn(C)c(Nc2c(Br)cccc2[N+](=O)[O-])c1-c1ccc(F)cc1Cl` [Compound 110], the “Test C disease control rating” value in assay [1] was determined as 56%. In addition, in assay [2], the “Test A disease control rating” value is given as 100%. The “Test D disease control rating” value in assay [3] was determined as 73%. Also, in assay [4], the “Test B disease control rating” value is listed as 98%. In assay [5], the “Test F disease control rating” value came out at 0%. In addition, the “Test E disease control rating” value in assay [6] is 99%.

`Cc1nn(C)c(Nc2ccc(F)cc2[N+](=O)[O-])c1-c1ccc(F)cc1Cl` [Compound 111, 4-(2-chloro-4-fluorophenyl)-N-(4-fluoro-2-nitrophenyl)-1,3-dimethyl-1H-pyrazol-5-amine]: the pest or weed control at 50 ppm in assay [1] (setting [7]) came out at 99%; in assay [2] (setting [8]) it was 100%; in assay [3] (setting [9]), 0%; in assay [4] (setting [10]), 99%; in assay [5] (setting [11]) it was 93%; in assay [6] (setting [12]), 100%.

Consider `Cc1nn(C)c(Nc2c(F)cccc2[N+](=O)[O-])c1-c1ccc(F)cc1Cl` [Compound 112, 4-(2-chloro-4-fluorophenyl)-N-(2-fluoro-6-nitrophenyl)-1,3-dimethyl-1H-pyrazol-5-amine], for which the pest or weed control at 10 ppm stood at 98% in assay [1] (Blumeria graminis, 192 h, 10 ppm, read-out: Test C disease control rating (wheat powdery mildew)); 72% in assay [2] (Zymoseptoria tritici, 10 ppm, read-out: Test A disease control rating (wheat leaf blotch)); 52% in assay [3] (Phakopsora pachyrhizi, 10 ppm, read-out: Test D disease control rating (Asian soybean rust)); 100% in assay [4] (10 ppm, read-out: Test B disease control rating (wheat leaf rust)); 98% in assay [5] (Alternaria solani, 10 ppm, read-out: Test F disease control rating (tomato early blight)); 100% in assay [6] (Botrytis cinerea, 10 ppm, read-out: Test E disease control rating (tomato Botrytis)). Further, the pest or weed control at 50 ppm in assay [1] (setting [7]) was found to be 100%; in assay [2] (setting [8]), 88%; in assay [3] (setting [9]) it was 99%; in assay [4] (setting [10]), 100%; in assay [5] (setting [11]) it was 100%; in assay [6] (setting [12]), 100%.

For the compound `Cc1nn(C)c(Nc2c(F)cccc2[N+](=O)[O-])c1-c1ccc(C#N)cc1Cl` [Compound 113, 3-chloro-4-[5-[(2-fluoro-6-nitrophenyl)amino]-1,3-dimethyl-1H-pyrazol-4-yl]benzonitrile], the pest or weed control at 50 ppm stood at 97% in assay [1] (setting [7]); 100% in assay [2] (setting [8]); 13% in assay [3] (setting [9]); 99% in assay [4] (setting [10]); 99% in assay [5] (setting [11]); 99% in assay [6] (setting [12]).

Regarding `Cc1nn(C)c(Nc2c(F)cccc2[N+](=O)[O-])c1-c1c(F)cc(C#N)cc1F` [Compound 114], the “Test C disease control rating” value in assay [1] was 99%. In addition, in assay [2], the “Test A disease control rating” value is reported as 100%. Besides, the “Test D disease control rating” value in assay [3] amounted to 73%. Further, the “Test B disease control rating” value in assay [4] came to 98%. For the same compound, the “Test F disease control rating” value in assay [5] worked out at 99%. In addition, in assay [6], the “Test E disease control rating” value is 100%.

`Cc1nn(C)c(Nc2c(F)cc(Cl)cc2[N+](=O)[O-])c1-c1ccc(C#N)cc1Cl` [Compound 115]: in assay [1], the “Test C disease control rating” value came out at 94%. Further, the “Test A disease control rating” value in assay [2] is 100%. Further, the “Test D disease control rating” value in assay [3] is listed as 77%. For the same compound, the “Test B disease control rating” value in assay [4] is 100%. The “Test F disease control rating” value in assay [5] was 99%. For the same compound, in assay [6], the “Test E disease control rating” value is on record as 99%.

Turning to `Cc1nn(C)c(Nc2c(Cl)cc(Cl)cc2[N+](=O)[O-])c1-c1ccc(C#N)cc1Cl` [Compound 116], in assay [1], the “Test C disease control rating” value worked out at 56%. Besides, the “Test A disease control rating” value in assay [2] came to 99%. Also, in assay [3], the “Test D disease control rating” value is reported as 0%. The “Test B disease control rating” value in assay [4] was found to be 99%. Besides, in assay [5], the “Test F disease control rating” value was 82%. For the same compound, the “Test E disease control rating” value in assay [6] is given as 63%.
